ChEMBL document CHEMBL1142609, “An apigenin-derived xanthine oxidase inhibitor from Palhinhaea cernua” (J Nat Prod, 2006)

Experiments:
[1] = target: T1, Xanthine dehydrogenase/oxidase (Homo sapiens, UniProt P47989); assay: Inhibition of xanthine oxidase
[2] = target: T1, Xanthine dehydrogenase/oxidase; assay: Inhibition of xanthine oxidase by competitive Lineweaver-Burke plot
[3] = target: T1, Xanthine dehydrogenase/oxidase; assay: Inhibition of xanthine oxidase by noncompetitive Lineweaver-Burke plot; details: read-out: Kinact

T1 sequence (P47989 whole entry): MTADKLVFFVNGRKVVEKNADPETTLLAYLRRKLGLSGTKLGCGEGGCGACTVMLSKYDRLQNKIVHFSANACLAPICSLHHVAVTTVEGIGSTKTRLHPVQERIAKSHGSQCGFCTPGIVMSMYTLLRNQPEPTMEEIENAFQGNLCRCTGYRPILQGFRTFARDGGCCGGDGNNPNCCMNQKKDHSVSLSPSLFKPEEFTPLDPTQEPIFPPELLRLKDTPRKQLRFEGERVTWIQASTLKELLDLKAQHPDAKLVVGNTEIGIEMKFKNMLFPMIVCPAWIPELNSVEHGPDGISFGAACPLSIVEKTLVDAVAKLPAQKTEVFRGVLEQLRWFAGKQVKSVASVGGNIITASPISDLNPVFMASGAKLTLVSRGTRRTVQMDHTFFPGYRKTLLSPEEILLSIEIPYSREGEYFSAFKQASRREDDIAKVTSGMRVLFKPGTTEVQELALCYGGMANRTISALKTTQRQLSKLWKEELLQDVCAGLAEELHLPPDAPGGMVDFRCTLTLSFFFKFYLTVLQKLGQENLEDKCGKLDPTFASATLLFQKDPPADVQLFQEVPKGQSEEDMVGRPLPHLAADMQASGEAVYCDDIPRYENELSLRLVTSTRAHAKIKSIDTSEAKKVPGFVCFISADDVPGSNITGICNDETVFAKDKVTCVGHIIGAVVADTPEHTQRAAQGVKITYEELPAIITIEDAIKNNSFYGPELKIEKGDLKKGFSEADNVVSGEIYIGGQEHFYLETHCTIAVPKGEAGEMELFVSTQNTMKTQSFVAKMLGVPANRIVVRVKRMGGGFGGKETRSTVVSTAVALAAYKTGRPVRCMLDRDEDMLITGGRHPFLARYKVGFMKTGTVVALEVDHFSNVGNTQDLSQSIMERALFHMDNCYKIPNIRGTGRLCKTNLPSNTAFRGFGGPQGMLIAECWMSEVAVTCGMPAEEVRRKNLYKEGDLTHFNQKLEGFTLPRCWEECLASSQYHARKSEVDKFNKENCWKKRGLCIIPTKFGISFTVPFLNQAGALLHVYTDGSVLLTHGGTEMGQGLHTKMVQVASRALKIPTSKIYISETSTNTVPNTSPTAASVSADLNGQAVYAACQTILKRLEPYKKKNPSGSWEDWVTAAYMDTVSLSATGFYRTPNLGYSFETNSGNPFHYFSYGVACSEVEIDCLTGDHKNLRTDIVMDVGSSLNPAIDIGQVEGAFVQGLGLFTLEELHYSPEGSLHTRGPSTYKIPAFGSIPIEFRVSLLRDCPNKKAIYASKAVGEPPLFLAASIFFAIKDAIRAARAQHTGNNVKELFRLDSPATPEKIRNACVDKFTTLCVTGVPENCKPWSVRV

IC50 [1] [µM]	Ki [2] [µM]	Ki [3] [µM]	Structure (SMILES)
> 100			O=C(/C=C/c1ccc(O)cc1)OC[C@@H]1O[C@H](Oc2ccc(-c3cc(=O)c4c(O)cc(O)cc4o3)cc2)[C@@H](OC(=O)/C=C/c2ccc(O)cc2)[C@H](O)[C@H]1O
24	14.3	93.7	O=C(/C=C/c1ccc(O)cc1)O[C@@H]1[C@@H](Oc2ccc(-c3cc(=O)c4c(O)cc(O)cc4o3)cc2)O[C@@H](CO)[C@H](O)[C@H]1O
> 100			O=C(/C=C/c1ccc(O)cc1)OC[C@@H]1O[C@H](Oc2ccc(-c3cc(=O)c4c(O)cc(O)cc4o3)cc2)[C@@H](O)[C@H](O)[C@H]1O
